Reference: patent US20260097106A1, “AVIRULENT LIVE BACTERIAL VACCINES CURED OF PLASMIDS CONTAINING ANTIMICROBIAL RESISTANCE GENES” (Drs. Koehnk & Feldman, LLP, priority 2022, published 2026)
Like-named read-outs stand apart in the source and are kept apart here.

How the values were obtained:
[1] = tested on: K88 Pre-Cured cells (ECMS091703HM-competent); test: Antibiotic sensitivity (Int/MIC) at Iowa State University; type: cell-based, E. coli; conditions: Table 7, E. COS
Method: (§1) The antibiotic sensitivity of Entero Vac K88 cells cured of plasmids that contain AMR genes (MS-K88-030321HM-PC2BSRAK88) was performed at Iowa State University (ISU) with comparison to ECMS091703HM-competent cells.

[2] = tested on: K88 Cured vaccine (MS-K88-030321HM-PC2BSRAK88); test: as above; type: cell-based, E. coli; conditions: for MIC: Table 7, E. COS, K88 Cured vaccine; for Antibiotic sensitivity of cured cells (in words): cured MS-K88-030321HM-PC2BSRAK88 cells compared with ECMS091703HM-competent cells
Method: as §1

[3] = tested on: F18 Cured vaccine (MS060520HM-PCISRAF18); test: as above; type: cell-based, E. coli; conditions: for MIC: F18 Cured vaccine; for Antibiotic resistance of cured cells (in words): cured MS060520HM-PCISRAF18 cells over MS112101HM-competent cells
Method: (§2) The antibiotic sensitivity of Edema Vac F18 cells cured of plasmids that contain AMR genes (MS060520HM-PCISRAF18) was performed at Iowa State University (ISU) (Accession: 2020076670) with comparison to MS112101HM-competent cells (see Tables 4 and 5).

[4] = tested on: F18 Pre-Cured cells (MS112101HM-competent); test: as above; type: cell-based, E. coli; conditions: Table 4, E. COLH
Method: as §2

[5] = tested on: MS112101HM-AMR5 (Edema Vac F18 transformed with AMR5 plasmid); test: AMR disc testing on Mueller Hinton agar plates; type: cell-based, E. coli; conditions: for Ring measurement (radius, mm): antibiotic disc, Mueller Hinton plates
Method: (§3) AMR testing was performed comparing MS112101HM—SR, MS112101HM-AMR5, and MS112101HM-competent cells cultured on Mueller Hinton agar plates using Sulfatrim (SXT), Tetracycline (TE 30), Neomycin (NE 30), Sulfathiazine (ST 0.25), and Gentamicin (GM 10) discs.

[6] = tested on: MS112101HM-SR (Edema Vac F18 cells cured of plasmids that contain AMR genes); test: AMR disc testing on Mueller Hinton agar plates; type: cell-based, E. coli; conditions: for Ring measurement (radius, mm): antibiotic disc, Mueller Hinton plates, MS112101HM-SR; for Resistance of the strain to the antibiotic (in words): disc test, MS112101HM-SR compared with MS112101HM-competent
Method: as §3

[7] = tested on: MS112101HM-competent (competent Edema Vac F18 cells); test: AMR disc testing on Mueller Hinton agar plates; type: cell-based, E. coli; conditions: antibiotic disc
Method: as §3

[8] = tested on: ECMS091703HM-SR (Entero Vac K88 cells cured of plasmids that contain AMR genes); test: AMR disc testing on Mueller Hinton agar plates; type: cell-based, E. coli
Method: AMR testing was performed comparing ECMS091703HM-SR and ECMS091703HM-competent cells cultured on Mueller Hinton agar plates using Neomycin (NE 30) and Sulfathiazine (ST 0.25) discs. A master plate of ECMS091703HM-SR was produced as follows: subculturing a colony of ECMS091703HM-SR from LB agar containing 5% sucrose on new LB agar containing 5% sucrose, incubating overnight at 37° C., and storing sealed at 2-8° C.

[9] = tested on: Edema Vac F18 strain of E. coli vaccine; conditions: TSB media, overnight 37° C.
Method: (§4) Testing for resistance of the live avirulent E. coli strains, Entero Vac K88 and Edema Vac F18, to sodium chlorite was performed by evaluating the minimum inhibitory concentration of sodium chlorite as follows: Serial dilutions of sodium chlorite were prepared from a 100 mM stock solution using sterile TSB media and filter sterilized through 0.22 μm filter. Serially diluted tubes (5 ml each) were inoculated with either Entero Vac K88 or Edema Vac F18 strains of E. coli vaccine by adding 20 μl of 100 dose size of either Entero Vac K88 or Edema Vac F18 vaccine rehydrated in 5 ml TSB media. Positive controls are inoculated TSB media only, negative controls are uninoculated TSB media. All tubes were incubated overnight at 37° C. and turbidity was visualized the following day. Results of the MIC tests are disclosed in Table 1.

[10] = tested on: Entero Vac K88 strain of E. coli vaccine; conditions: TSB media, overnight 37° C.
Method: as §4

| Compound | MIC [1] | MIC [2] | MIC ([3]; Table 4, E. COLH) | MIC ([3]; Table 5, E. COS) | MIC [4] | Antibiotic resistance of cured cells (in words) [3] | also measured |
| --- | --- | --- | --- | --- | --- | --- | --- |
| CN1C[C@@H]2C[C@H]1CN2c1cc2c(cc1F)c(=O)c(C(=O)O)cn2C1CC1 [Danofloxacin] | NI/<=0.1200 | NI/<=0.1200 | NI/<=0.1200 | NI/<=0.1200 | NI/<=0.1200 |  |  |
| CS(=O)(=O)c1ccc([C@@H](O)[C@@H](CF)NC(=O)C(Cl)Cl)cc1 [Florfenicol] |  |  |  |  |  | loss of antibiotic resistance | Antibiotic sensitivity of cured cells (in words) [2]: more sensitive |
| CCCN1C[C@H](C)[C@@H](O)[C@](C)(O)[C@@H](CC)OC(=O)[C@H](C)[C@@H](O[C@H]2C[C@@](C)(OC)[C@@H](O)[C@H](C)O2)[C@H](C)[C@@H](O[C@@H]2O[C@H](C)C[C@H](N(C)C)[C@H]2O)[C@](C)(O)C[C@H]1C [Gamithromycin] | NI/>8.0000 | NI/8.0000 ^ | NI/4.0000 ^ | NI/8.0000 ^ | NI/4.0000 ^ |  |  |
| CN[C@@H]1[C@H](O)[C@H](NC)[C@H]2O[C@@]3(O)C(=O)C[C@@H](C)O[C@H]3O[C@@H]2[C@H]1O [Spectinomycin] | NI/>64.0000 | NI/<=8.0000 | NI/16.0000 | NI/<=8.0000 | NI/>64.0000 |  |  |
| COc1cc(NS(=O)(=O)c2ccc(N)cc2)nc(OC)n1 [Sulfadimethoxine] |  |  |  |  |  | loss of antibiotic resistance | Antibiotic sensitivity of cured cells (in words) [2]: more sensitive |
| CN(C)[C@@H]1C(O)=C(C(N)=O)C(=O)[C@@]2(O)C(O)=C3C(=O)c4c(O)cccc4[C@@](C)(O)[C@H]3C[C@@H]12 [Tetracycline] |  |  |  |  |  |  | Ring measurement (radius, mm) [5]: 0 mm; Ring measurement (radius, mm) [6]: 0 mm; Ring measurement (radius, mm) [7]: 0 mm |
| C=C[C@]1(C)C[C@@H](OC(=O)CSCCN(CC)CC)[C@]2(C)[C@H](C)CC[C@]3(CCC(=O)[C@H]32)[C@@H](C)[C@@H]1O [Tiamulin] |  |  |  |  |  | retained resistance |  |
| CC[C@H]1OC(=O)C[C@@H](O)[C@H](C)[C@@H](O[C@@H]2O[C@H](C)[C@@H](O)[C@H](N(C)C)[C@H]2O)[C@@H](CCN2CCCCC2)C[C@@H](C)C(=O)/C=C/C(C)=C/[C@@H]1CN1CCCCC1 [Tildipirosin] | NI/8.0000 ^ | NI/8.0000 ^ | NI/4.0000 ^ | NI/8.0000 ^ | NI/4.0000 ^ |  |  |
| CC[C@H]1OC(=O)C[C@@H](O)[C@H](C)[C@@H](O[C@@H]2O[C@H](C)[C@@H](O)[C@H](N(C)C)[C@H]2O)[C@@H](CCN2C[C@H](C)C[C@H](C)C2)C[C@@H](C)C(=O)/C=C/C(C)=C/[C@@H]1CO[C@@H]1O[C@H](C)[C@@H](O)[C@@H](OC)[C@H]1OC [Tilmicosin] |  |  |  |  |  | retained resistance |  |
| CCCNC[C@]1(O)[C@H](C)O[C@@H](O[C@H]2[C@H](C)[C@@H](O[C@@H]3O[C@H](C)C[C@H](N(C)C)[C@H]3O)[C@](C)(O)C[C@@H](C)CN[C@H](C)[C@@H](O)[C@](C)(O)[C@@H](CC)OC(=O)[C@@H]2C)C[C@@]1(C)OC [Tulathromycin] | NI/32.0000 ^ | NI/<=8.0000 | NI/<=8.0000 | NI/<=8.0000 | NI/<=8.0000 |  |  |
| CC[C@H]1OC(=O)C[C@@H](O)[C@H](C)[C@@H](O[C@@H]2O[C@H](C)[C@@H](O[C@H]3C[C@@](C)(O)[C@@H](O)[C@H](C)O3)[C@H](N(C)C)[C@H]2O)[C@@H](CC=O)C[C@@H](C)C(=O)/C=C/C(C)=C/[C@@H]1CO[C@@H]1O[C@H](C)[C@@H](O)[C@@H](OC)[C@H]1OC [Tylosin (Tartrate/Base), Tylosin] | NI/>32.0000 | NI/>32.0000 | NI/>32.0000^ | NI/>32.0000 | NI/>32.0000 |  |  |
| Gentamicin |  |  |  |  |  | loss of antibiotic resistance | Ring measurement (radius, mm) [5]: 11 mm; Ring measurement (radius, mm) [6]: 11 mm; Resistance of the strain to the antibiotic (in words) [6]: less resistance; Ring measurement (radius, mm) [7]: 4 mm |
| Neomycin |  |  |  |  |  |  | Antibiotic sensitivity of cured cells (in words) [2]: more sensitive; Ring measurement (radius, mm) ([8]; antibiotic disc, Mueller Hinton plates, ECMS091703HM-SR): 34 mm; Resistance of the strain to the antibiotic (in words) ([8]; disc test, ECMS091703HM-SR compared with ECMS091703HM-competent): less resistance; Ring measurement (radius, mm) [5]: 11 mm; Resistance of the strain to the antibiotic (in words) ([5]; disc test): retained resistance; Ring measurement (radius, mm) [6]: 8 mm; Resistance of the strain to the antibiotic (in words) [6]: less resistance; Ring measurement (radius, mm) [7]: 7 mm |
| Penicillin |  |  |  |  |  | retained resistance |  |
| Sodium Chlorite [NaClO2] |  |  |  |  |  |  | Turbidity ([9]; NaClO2 0.03125 mM): Pos; Turbidity ([9]; NaClO2 0.0625 mM): Pos; Turbidity ([9]; NaClO2 0.125 mM): Neg; Turbidity ([9]; NaClO2 0.25 mM): Neg; Turbidity ([9]; NaClO2 0.5 mM): Neg; Turbidity ([9]; NaClO2 1 mM): Neg; Turbidity ([9]; NaClO2 10 mM): Neg; Turbidity ([10]; NaClO2 0.03125 mM): Pos; Turbidity ([10]; NaClO2 0.0625 mM): Pos; Turbidity ([10]; NaClO2 0.125 mM): Neg; Turbidity ([10]; NaClO2 0.25 mM): Neg; Turbidity ([10]; NaClO2 0.5 mM): Neg; Turbidity ([10]; NaClO2 1 mM): Neg; Turbidity ([10]; NaClO2 10 mM): Neg |
| Sulfatrim [SXT] |  |  |  |  |  |  | Ring measurement (radius, mm) [5]: 17 mm; Ring measurement (radius, mm) [6]: 16 mm; Resistance of the strain to the antibiotic (in words) [6]: less resistance; Ring measurement (radius, mm) [7]: 11 mm |
| Trimethoprim/Sulphamethoxazole | NI/<=2.0000 | NI/<=2.0000 | NI/<=2.0000 | NI/<=2.0000 | NI/<=2.0000 |  |  |
